Laboratory results reported in PubChem BioAssay AID248 (DTP/NCI, 2004).
Several values for one entry are separate records, joined by “and”; a condition that tells them apart may be missing. Identical values can stand only once. Toxic doses and inconclusive results are not listed.

Test system: L1210 leukemia ip in BDF1 mice, survival T/C
Assay: NCI In Vivo Anticancer Drug Screen. Data for tumor model L1210 Leukemia (intraperitoneal) in B6D2F1 (BDF1) mice
Conditions: endpoint: mean survival time, higher = longer survival
Procedure, shortened: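 Transplanted-tumor mice were given test agent; controls received vehicle only. Survival readings from the two groups were divided (treated over control).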

**Q.** With `NC(Cc1c[nH]c2ccc(N(CCCl)CCCl)cc12)C(=O)O` (stereo not given) as the compound, how does the T/C (dose: 0.01 mg/kg/injection, schedule: Q#A X Z (ip), vehicle: acid diluted with saline) read?
**A.** 124 % of control

**Q.** And the T/C (dose: 0.02 mg/kg/injection, schedule: Q01DX010 (iv), vehicle: acid diluted with saline)?
**A.** 103 % of control

**Q.** What about the T/C (dose: 0.02 mg/kg/injection, schedule: Q01DX Z (ip), vehicle: acid diluted with saline) of the same compound?
**A.** 108 % of control

**Q.** And the T/C (dose: 0.02 mg/kg/injection, schedule: Q01DX Z (ip), vehicle: saline)?
**A.** 119 % of control

**Q.** And the T/C (dose: 0.02 mg/kg/injection, schedule: Q01DX Z (sc), vehicle: acid diluted with saline)?
**A.** 114 % of control

**Q.** What about the T/C (dose: 0.05 mg/kg/injection, schedule: Q07DX Z (ip), vehicle: acid diluted with saline) of the same compound?
**A.** 111 % of control

**Q.** And the T/C (dose: 0.06 mg/kg/injection, schedule: Q01DX010 (iv), vehicle: acid diluted with saline)?
**A.** 108 % of control

**Q.** What about the T/C (dose: 0.06 mg/kg/injection, schedule: Q01DX Z (sc), vehicle: acid diluted with saline) of the same compound?
**A.** 106 % of control

**Q.** What about the T/C (dose: 0.09 mg/kg/injection, schedule: Q#A X Z (ip), vehicle: acid diluted with saline) of the same compound?
**A.** 167 % of control

**Q.** What about the T/C (dose: 0.1 mg/kg/injection, schedule: Q03DX Z (oral), vehicle: acid diluted with saline) of the same compound?
**A.** 110 % of control

**Q.** And the T/C (dose: 0.12 mg/kg/injection, schedule: Q01DX Z (oral), vehicle: acid diluted with saline)?
**A.** 102 % of control

**Q.** What about the T/C (dose: 0.12 mg/kg/injection, schedule: Q#A X Z (oral), vehicle: acid diluted with saline) of the same compound?
**A.** 121 % of control

**Q.** What about the T/C (dose: 0.13 mg/kg/injection, schedule: Q01DX Z (ip), vehicle: saline) of the same compound?
**A.** 169 % of control

**Q.** And the T/C (dose: 0.13 mg/kg/injection, schedule: Q01DX Z (oral), vehicle: acid diluted with saline)?
**A.** 101 % of control

**Q.** And the T/C (dose: 0.15 mg/kg/injection, schedule: Q01DX Z (oral), vehicle: saline)?
**A.** 96 % of control

**Q.** And the T/C (dose: 0.16 mg/kg/injection, schedule: Q07DX Z (ip), vehicle: acid diluted with saline)?
**A.** 103 % of control

**Q.** And the T/C (dose: 0.18 mg/kg/injection, schedule: Q01DX009 (ip), vehicle: saline)?
**A.** 115 % of control

**Q.** What about the T/C (dose: 0.18 mg/kg/injection, schedule: Q01DX Z (sc), vehicle: acid diluted with saline) of the same compound?
**A.** 120 % of control

**Q.** What about the T/C (dose: 0.19 mg/kg/injection, schedule: Q03DX Z (oral), vehicle: acid diluted with saline) of the same compound?
**A.** 114 % of control

**Q.** And the T/C (dose: 0.26 mg/kg/injection, schedule: Q01DX Z (ip), vehicle: saline)?
**A.** 153 % of control and 157 % of control

**Q.** What about the T/C (dose: 0.27 mg/kg/injection, schedule: Q#A X Z (ip), vehicle: acid diluted with saline) of the same compound?
**A.** 97 % of control

**Q.** What about the T/C (dose: 0.3 mg/kg/injection, schedule: Q01DX Z (oral), vehicle: saline) of the same compound?
**A.** 100 % of control

**Q.** What about the T/C (dose: 0.38 mg/kg/injection, schedule: Q03DX Z (oral), vehicle: acid diluted with saline) of the same compound?
**A.** 112 % of control

**Q.** And the T/C (dose: 0.39 mg/kg/injection, schedule: Q01DX Z (ip), vehicle: saline)?
**A.** 166 % of control

**Q.** And the T/C (dose: 0.5 mg/kg/injection, schedule: Q03DX Z (oral), vehicle: acid diluted with saline)?
**A.** 120 % of control

**Q.** And the T/C (dose: 0.5 mg/kg/injection, schedule: Q#A X Z (oral), vehicle: acid diluted with saline)?
**A.** 107 % of control

**Q.** What about the T/C (dose: 0.54 mg/kg/injection, schedule: Q01DX Z (ip), vehicle: acid diluted with saline) of the same compound?
**A.** 198 % of control

**Q.** What about the T/C (dose: 0.54 mg/kg/injection, schedule: Q01DX Z (sc), vehicle: acid diluted with saline) of the same compound?
**A.** 160 % of control

**Q.** And the T/C (dose: 0.58 mg/kg/injection, schedule: Q01DX Z (ip), vehicle: saline)?
**A.** 190 % of control

**Q.** What about the T/C (dose: 0.6 mg/kg/injection, schedule: Q01DX Z (oral), vehicle: saline) of the same compound?
**A.** 101 % of control

**Q.** And the T/C (dose: 0.75 mg/kg/injection, schedule: Q01DX009 (ip), vehicle: saline)?
**A.** 176 % of control

**Q.** And the T/C (dose: 0.75 mg/kg/injection, schedule: Q03DX Z (oral), vehicle: acid diluted with saline)?
**A.** 114 % of control

**Q.** And the T/C (dose: 0.87 mg/kg/injection, schedule: Q01DX Z (ip), vehicle: saline)?
**A.** 211 % of control

**Q.** What about the T/C (dose: 0.9 mg/kg/injection, schedule: Q07DX Z (oral), vehicle: acid diluted with saline) of the same compound?
**A.** 114 % of control

**Q.** And the T/C (dose: 1.0 mg/kg/injection, schedule: Q01DX (oral), vehicle: acid diluted with saline)?
**A.** 189 % of control

**Q.** And the T/C (dose: 1.0 mg/kg/injection, schedule: Q03DX Z (oral), vehicle: acid diluted with saline)?
**A.** 117 % of control

**Q.** And the T/C (dose: 1.2 mg/kg/injection, schedule: Q01DX Z (oral), vehicle: saline)?
**A.** 115 % of control

**Q.** And the T/C (dose: 1.3 mg/kg/injection, schedule: Q07DX003 (ip), vehicle: acid diluted with saline)?
**A.** 155 % of control

**Q.** What about the T/C (dose: 1.5 mg/kg/injection, schedule: Q01DX009 (ip), vehicle: saline) of the same compound?
**A.** 160 % of control and 260 % of control

**Q.** And the T/C (dose: 1.5 mg/kg/injection, schedule: Q03DX (oral), vehicle: acid diluted with saline)?
**A.** 117 % of control

**Q.** What about the T/C (dose: 1.5 mg/kg/injection, schedule: Q03DX Z (oral), vehicle: acid diluted with saline) of the same compound?
**A.** 183 % of control

**Q.** What about the T/C (dose: 1.6 mg/kg/injection, schedule: Q01DX Z (sc), vehicle: acid diluted with saline) of the same compound?
**A.** 103 % of control

**Q.** And the T/C (dose: 1.75 mg/kg/injection, schedule: Q01DX 1 (oral), vehicle: acid diluted with saline)?
**A.** 102 % of control and 107 % of control

**Q.** And the T/C (dose: 1.75 mg/kg/injection, schedule: Q07DX (oral), vehicle: acid diluted with saline)?
**A.** 112 % of control

**Q.** And the T/C (dose: 1.8 mg/kg/injection, schedule: Q07DX Z (oral), vehicle: acid diluted with saline)?
**A.** 117 % of control
